Laboratory results taken from article PMC10647059, “Molecular Determinants of EphA2 and EphB2 Antagonism Enable the Design of Ligands with Improved Selectivity” (Journal of Chemical Information and Modeling, 2023).

What was measured:
EphA2 [1] = molecular target: T1, EphA2 (Mus musculus, UniProt Q03145); experiment: ELISA binding assay: displacement and saturation of biotinylated ephrin-A1-Fc on immobilized EphA2-Fc
Experimental: Compounds were added to the wells at proper concentrations in 0.5% DMSO and incubated at 37 °C for 1 h. Biotinylated ephrin-A1-Fc was added at 37 °C for 4 h. Data are the means of three independent experiments ± standard deviation.
The day after, wells were washed with a washing buffer (PBS 0.05% tween20, pH 7.5) and blocked with a blocking buffer solution (PBS 1% BSA) for 1 h at 37 °C. Compounds were added to the wells at a proper concentration in 0.5% DMSO and incubated at 37 °C for 1 h. […] After 4 h for displacement assays or 5 h for saturation studies, wells were washed and incubated with 100 μL/well Streptavidin-HRP (Sigma S5512) for 20 min at room temperature. Then, wells were washed again with a washing buffer and incubated at room temperature with 0.1 mg/mL tetramethylbenzidine (Sigma T2885) reconstituted in stable peroxide buffer (0,05 M citric acid +0,05 M dibasic sodium phosphate, pH 5). The reaction was quenched with 3 N HCl. Absorbance was read at 450 nm (ELISA plate reader). The IC50 and Ki values were determined using one-site competition nonlinear regression analysis with Prism software (GraphPad Software Inc.).

[2] = Rat plasma stability assay; settings: 60 min at 37 °C, 1 μM
Experimental: Pooled plasma (400 μL) was incubated at 37 °C in the presence of 10 mM phosphate-buffered saline (PBS) pH 7.4. 5 μL of compound stock solution in DMSO (final DMSO concentration: 1%; final compound concentration: 1 μM) was added to start the rat plasma stability assay. […] At fixed time points, aliquots of 50 μL were taken, added with two volumes of CH3CN containing as internal standard the structural analogue UniPR126, centrifuged (16,000g, 5 min, 4 °C), and analyzed by HPLC-ESI-MS/MS. The responses (i.e., peak area ratios of test compound vs internal standard) were referred to the zero time-point samples (considered as 100%) to determine the percentage of remaining compound vs time.

EphA2 [3] = molecular target: T1, EphA2; experiment: Surface plasmon resonance, steady-state analysis on immobilized EphA2-Fc; assay type: binding; settings: EphA2-Fc on CM4 sensorchip; ± standard deviation; read-out: KD (SPR, steady-state)
Experimental: Increasing concentrations of the two compounds were injected over EphA2-Fc immobilized on the surface of a CM SPR4 sensorchip and evaluated for their interaction.
Surface plasmon resonance (SPR) measurements were performed on a BIAcore X100 instrument, using a carboxyl-methyl-dextran-coated sensorchip (CM4, GE-Healthcare).

U251 GBM cell line = experiment: MTT cell viability/proliferation assay on U251 glioblastoma cell line; assay type: cell-based; settings: 30 μM, continuous exposure, time course vs control DMSO 0.3%
Experimental: Figure 12 reports the time course of cell growth compared to the control (DMSO 0.3% solution) in the presence of a compound concentration of 30 μM. […] Although additional investigations will be required to confirm this promising behavior, it could be speculated that the higher antiproliferative activity of UniPR1449 compared to that of […], and the reference antagonist UniPR1331, is due to its peculiar pharmacological profile at the level of Eph receptors.
Data are the means of at least three independent experiments ± standard deviation.
Figure S10. Cell viability assay performed using a MTT assay on U251 glioblastoma cell line treated with the approved drug temozolomide and the reference compound UniPR1331.

[4] = Rat liver microsome stability assay; assay type: in vitro ADME; settings: liver microsomes, pH 7.4, 60 min at 37 °C, NADPH-generating system, read-out: compound recovery at 60 min in rat liver microsomes
Experimental: Experiments were performed as previously described.[59]

physchem = settings: pH 7.4
Experimental: Distribution coefficients (D) were measured at physiological pH by the shake-flask method at room temperature (21.0 ± 0.5 °C), employing n-octanol/50 mM MOPS buffer pH 7.4, 0.15 M KCl ionic strength as a biphasic solvent system, after mutual saturation by overnight stirring. A weighed amount of compound was dissolved in water-saturated n-octanol, a buffer was added, and the sample was stirred for 4 h to reach partition equilibrium. Partition phases were centrifuged (9000g, 10 min, 20 °C), separated, diluted with methanol, and dosed by HPLC-ESI-MS/MS.

EphB2 = molecular target: T2, EphB2 (Mus musculus, UniProt P54763); experiment: ELISA binding assay: displacement and saturation of biotinylated ephrin-B1-Fc on immobilized EphB2; settings: data not shown
T2 sequence (P54763 19-543): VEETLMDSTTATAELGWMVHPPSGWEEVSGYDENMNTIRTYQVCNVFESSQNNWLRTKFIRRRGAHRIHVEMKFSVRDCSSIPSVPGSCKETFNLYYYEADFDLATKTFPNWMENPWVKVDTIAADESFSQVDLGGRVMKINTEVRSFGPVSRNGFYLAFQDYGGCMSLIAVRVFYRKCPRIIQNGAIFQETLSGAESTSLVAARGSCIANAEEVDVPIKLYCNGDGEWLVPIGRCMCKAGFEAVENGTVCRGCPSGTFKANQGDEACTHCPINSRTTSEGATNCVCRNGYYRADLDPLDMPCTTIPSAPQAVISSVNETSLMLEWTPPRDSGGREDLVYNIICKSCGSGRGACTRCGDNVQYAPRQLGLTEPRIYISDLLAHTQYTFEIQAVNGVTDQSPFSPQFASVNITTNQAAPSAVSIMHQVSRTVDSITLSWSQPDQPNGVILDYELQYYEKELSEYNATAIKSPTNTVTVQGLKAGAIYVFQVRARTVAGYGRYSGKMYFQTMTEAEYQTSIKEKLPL

T1 sequence (Q03145 with tags, fused parts or gaps limits assumed): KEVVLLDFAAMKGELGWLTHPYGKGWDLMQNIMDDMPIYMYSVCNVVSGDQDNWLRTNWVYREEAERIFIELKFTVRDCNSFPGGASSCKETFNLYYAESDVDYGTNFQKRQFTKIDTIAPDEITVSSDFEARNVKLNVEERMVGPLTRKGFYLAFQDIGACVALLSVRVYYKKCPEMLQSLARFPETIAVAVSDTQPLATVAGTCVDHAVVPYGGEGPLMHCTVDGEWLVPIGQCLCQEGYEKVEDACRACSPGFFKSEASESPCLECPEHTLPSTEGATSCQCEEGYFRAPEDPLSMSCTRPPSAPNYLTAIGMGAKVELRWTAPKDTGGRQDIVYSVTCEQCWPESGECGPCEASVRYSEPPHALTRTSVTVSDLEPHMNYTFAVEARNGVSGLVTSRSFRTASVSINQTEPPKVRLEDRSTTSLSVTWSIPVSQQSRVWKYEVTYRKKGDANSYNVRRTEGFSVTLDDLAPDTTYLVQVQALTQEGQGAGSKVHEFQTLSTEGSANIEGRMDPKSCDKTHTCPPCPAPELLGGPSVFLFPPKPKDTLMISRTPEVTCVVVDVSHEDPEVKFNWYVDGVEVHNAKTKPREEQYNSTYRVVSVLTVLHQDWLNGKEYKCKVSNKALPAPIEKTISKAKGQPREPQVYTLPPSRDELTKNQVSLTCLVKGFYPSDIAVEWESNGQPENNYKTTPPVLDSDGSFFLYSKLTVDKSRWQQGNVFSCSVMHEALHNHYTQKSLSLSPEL

Structure (SMILES) | reversibility of binding to EphA2 (EphA2 [1]; 50 μM compound, with or without washing three times with PBS before ephrin-A1-Fc) | Ki (EphA2 [1]; read-out: Ki for EphA2 (saturation curves of ephrin-A1-Fc, nonlinear regression)) [nM] | stability in rat plasma [2] | Kd (EphA2 [3]) [nM] | effect on U251 cell growth (MTT) (U251 GBM cell line) | remaining at 60 min, 1 μM [4] [%] | logD at 4 h (physchem) | reversibility of binding to EphB2 (EphB2)
CC(CCC(=O)NC(CC(=O)O)Cc1cn(S(=O)(=O)c2ccccc2)c2ccccc12)C1CCC2C3CC=C4CC(O)CCC4(C)C3CCC12C [UniPR1449, N-(3β-hydroxy-Δ^5-cholen-24-oyl)-1-benzensulfonyl-L-β-homotryptophan] | reversible | 2200 | stable | 3800 ± 2400 | fully blocked GBM growth | 62.2 | 4.7 ± 0.11 | –
C[C@H](CCC(=O)N[C@H](CC(=O)O)Cc1c[nH]c2ccccc12)[C@H]1CCC2C3CC=C4C[C@@H](O)CC[C@]4(C)C3CC[C@@]21C (stereo partly drawn) [UniPR1447, N-(3β-hydroxy-Δ^5-cholen-24-oyl)-L-β-homotryptophan] | – | – | stable | – | did not significantly affect U251 growth | 40.3 | 4.6 ± 0.1 | fully reversible
